Laboratory results published in patent US8574563B2 (Bristol-Myers Squibb Company, priority 2006, dated 2013).
Where two headings read alike, the source gives them in different places.

Test system: HCV 1b-377-neo replicon cells
Test: HCV replicon assay, HCV 1b-377-neo replicon cells (1b FRET)
Assay type: cell-based, Hepatitis C virus genotype 1b
Settings: HCV 1b-377-neo replicon cells, HCV 1b genotype, read-out: EC50 range against HCV 1b (Table 2, Range)
In short: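 Compounds were tested in genotype 1b subgenomic replicon cells carrying a neomycin marker, alongside a matched replicon line with an NS5A Y2065H substitution that confers resistance to a reference NS5A inhibitor.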

| Compound | EC50 (Hepatitis C virus) [nM] | EC50 [nM] |
| --- | --- | --- |
| COC(=O)N[C@@H](C(=O)N1CCC[C@H]1c1ncc(-c2ccc(-c3ccc(-c4cnc([C@@H]5CCCN5C(=O)C5CCOC5)[nH]4)cc3)cc2)[nH]1)c1ccccc1 (stereo partly drawn) [Example 74, methyl ((1R)-2-oxo-1-phenyl-2-((2S)-2-(5-(4′-(2-((2S)-1-(tetrahydro-3-furanylcarbonyl)-2-pyrrolidinyl)-1H-imidazol-5-yl)-4-biphenylyl)-1H-imidazol-2-yl)-1-pyrrolidinyl)ethyl)carbamate] | 0.001 to 0.999 | – |
| O=C(N1CCC[C@H]1c1ncc(-c2ccc(-c3ccc(-c4cnc([C@@H]5CCCN5C(=O)C5(O)CC5)[nH]4)cc3)cc2)[nH]1)C1(O)CC1 [Example 24, 1,1′-(4,4′-biphenyldiylbis(1H-imidazole-5,2-diyl(2S)-2,1-pyrrolidinediylcarbonyl))dicyclopropanol] | 1 to 99 | – |
| COC(=O)N[C@@H](Cc1cn(Cc2ccccc2)cn1)C(=O)N1CCC[C@H]1c1ncc(-c2ccc(-c3ccc(-c4cnc([C@@H]5CCCN5C(=O)[C@H](Cc5cn(Cc6ccccc6)cn5)NC(=O)OC)[nH]4)cc3)cc2)[nH]1 [cj-154, methyl ((1S)-2-((2S)-2-(5-(4′-(2-((2S)-1-((2S)-3-(1-benzyl-1H-imidazol-4-yl)-2-((methoxycarbonyl)amino)propanoyl)-2-pyrrolidinyl)-1H-imidazol-5-yl)-4-biphenylyl)-1H-imidazol-2-yl)-1-pyrrolidinyl)-1-((1-benzyl-1H-imidazol-4-yl)methyl)-2-oxoethyl)carbamate] | 0.001 to 0.999 | – |
| COC(=O)NCC(=O)N1CCC[C@H]1c1ncc(-c2ccc(-c3ccc(-c4cnc([C@@H]5CCCN5C(=O)[C@@H](c5ccccc5)N5CCCC5)[nH]4)cc3)cc2)[nH]1 [Example 102, methyl (2-oxo-2-((2S)-2-(5-(4′-(2-((2S)-1-((2R)-2-phenyl-2-(1-pyrrolidinyl)acetyl)-2-pyrrolidinyl)-1H-imidazol-5-yl)-4-biphenylyl)-1H-imidazol-2-yl)-1-pyrrolidinyl)ethyl)carbamate] | 0.001 to 0.999 | – |
| COC(=O)N[C@H](C(=O)N1CCC[C@H]1c1ncc(-c2ccc(-c3ccc(-c4cnc([C@@H]5CCCN5C(=O)[C@@H](NC(=O)OC)C(C)C)[nH]4)cc3CN(C)C)cc2)[nH]1)C(C)C [Example M120] | 100 to 999 | – |
| COC(=O)N[C@@H](C(=O)N[C@@H](C)c1ncc(-c2cnc(-c3ccc(-c4cnc([C@@H]5CCCN5C(=O)[C@H](NC(=O)OC)c5ccccc5)[nH]4)cc3)cn2)[nH]1)c1ccccc1 [Example 152j-19, methyl ((1R)-2-((2S)-2-(5-(4-(5-(2-((1S)-1-(((2R)-2-((methoxycarbonyl)amino)-2-phenylacetyl)amino)ethyl)-1H-imidazol-5-yl)-2-pyrazinyl)phenyl)-1H-imidazol-2-yl)-1-pyrrolidinyl)-2-oxo-1-phenylethyl)carbamate] | 0.001 to 0.999 | – |
| COC(=O)N[C@H](CC(=O)N1CCC[C@H]1c1ncc(-c2ccc(-c3ccc(-c4cnc([C@@H]5CCCN5C(=O)C[C@H](Cc5cccs5)NC(=O)OC)[nH]4)cc3)cc2)[nH]1)Cc1cccs1 [cj-136, dimethyl (4,4′-biphenyldiylbis(1H-imidazole-5,2-diyl(2S)-2,1-pyrrolidinediyl((2R)-4-oxo-1-(2-thienyl)-4,2-butanediyl)))biscarbamate] | 0.001 to 0.999 | – |
| CN(C)C(C(=O)N1CCCC1c1nc(-c2ccc(-c3ccc(-c4cnc(C5CCCN5C(=O)Cc5csc6ccccc56)[nH]4)cc3)cc2)c[nH]1)c1ccccc1 [Example 94-54, (1R)-2-((2S)-2-(5-(4′-(2-((2S)-1-(1-benzothiophen-3-ylacetyl)-2-pyrrolidinyl)-1H-imidazol-5-yl)-4-biphenylyl)-1H-imidazol-2-yl)-1-pyrrolidinyl)-N,N-dimethyl-2-oxo-1-phenylethanamine] | – | 0.001 to 0.999 |
| COC(=O)N[C@H]1CCC[C@@H]1C(=O)N1CCC[C@H]1c1ncc(-c2ccc(-c3ccc(-c4cnc([C@@H]5CCCN5C(=O)[C@H]5CCC[C@@H]5NC(=O)OC)[nH]4)cc3)cc2)[nH]1 [cj-155, dimethyl (4,4′-biphenyldiylbis(1H-imidazole-5,2-diyl(2S)-2,1-pyrrolidinediylcarbonyl(1S,2S)-2,1-cyclopentanediyl))biscarbamate] | 1 to 99 | – |
| COC(=O)N[C@@H](CC(=O)OCc1ccccc1)C(=O)N1CCC[C@H]1c1ncc(-c2ccc(-c3ccc(-c4cnc([C@@H]5CCCN5C(=O)[C@@H](NC(=O)OC)C(C)C)[nH]4)cc3)cc2)[nH]1 [Example M109, benzyl (3S)-3-((methoxycarbonyl)amino)-4-((2S)-2-(5-(4′-(2-((2S)-1-(N-(methoxycarbonyl)-L-valyl)-2-pyrrolidinyl)-1H-imidazol-5-yl)-4-biphenylyl)-1H-imidazol-2-yl)-1-pyrrolidinyl)-4-oxobutanoate] | 1 to 99 | – |
| COC(=O)N[C@@H](C)C(=O)N1CC[C@H](O)[C@H]1c1ncc(-c2ccc(-c3ccc(-c4cnc([C@@H]5CCCN5C(=O)[C@H](C)NC(=O)OC)[nH]4)cc3)cc2)[nH]1 [OL-20, methyl ((1S)-2-((2S)-2-(4-(4′-(2-((2R,3S)-3-hydroxy-1-(N-(methoxycarbonyl)-L-alanyl)-2-pyrrolidinyl)-1H-imidazol-4-yl)-4-biphenylyl)-1H-imidazol-2-yl)-1-pyrrolidinyl)-1-methyl-2-oxoethyl)carbamate] | 1 to 99 | – |
| CN(C)C(=O)N[C@@H](C(=O)N1CCC[C@H]1c1nc(-c2ccc(-c3ccc(-c4c[nH]c([C@@H]5CCCN5C(=O)[C@H](NC(=O)N(C)C)c5ccccc5)n4)cc3)cc2)c[nH]1)c1ccccc1 [Example 24-4a, N′,N′′′-(4,4′-biphenyldiylbis(1H-imidazole-4,2-diyl(2S)-2,1-pyrrolidinediyl((1R)-2-oxo-1-phenyl-2,1-ethanediyl)))bis(1,1-dimethylurea)] | 0.001 to 0.999 | – |
| COC(=O)N[C@@H](C(=O)N1CCC[C@H]1c1ncc(-c2ccc(-c3ccc(-c4cnc([C@@H]5CCCN5C(=O)CC5CC5)[nH]4)cc3)cc2)[nH]1)c1ccccc1 [Example 34, methyl ((1R)-2-((2S)-2-(5-(4′-(2-((2S)-1-(cyclopropylacetyl)-2-pyrrolidinyl)-1H-imidazol-5-yl)-4-biphenylyl)-1H-imidazol-2-yl)-1-pyrrolidinyl)-2-oxo-1-phenylethyl)carbamate] | 0.001 to 0.999 | – |
| CN(C)[C@@H](C(=O)N1CCC[C@H]1c1ncc(-c2ccc(-c3ccc(-c4cnc([C@@H]5CCCN5C(=O)[C@@H](c5ccccc5)N5CCCCC5)[nH]4)cc3)cc2)[nH]1)c1ccccc1Cl [Example 28-4, (1R)-1-(2-chlorophenyl)-N,N-dimethyl-2-oxo-2-((2S)-2-(5-(4′-(2-((2S)-1-((2R)-2-phenyl-2-(1-piperidinyl)acetyl)-2-pyrrolidinyl)-1H-imidazol-5-yl)-4-biphenylyl)-1H-imidazol-2-yl)-1-pyrrolidinyl)ethanamine] | 0.001 to 0.999 | – |
| COC(=O)N[C@H](C(=O)N1CCC[C@H]1c1ncc(-c2ccc(-c3ccc(-c4cnc([C@@H]5CCCN5C(=O)[C@H]5CC[C@H](NC(=O)OC)CC5)[nH]4)cc3)cc2)[nH]1)C(C)C [cj-70, methyl ((1S)-1-(((2S)-2-(5-(4′-(2-((2S)-1-((trans-4-((methoxycarbonyl)amino)cyclohexyl)carbonyl)-2-pyrrolidinyl)-1H-imidazol-5-yl)-4-biphenylyl)-1H-imidazol-2-yl)-1-pyrrolidinyl)carbonyl)-2-methylpropyl)carbamate] | 0.001 to 0.999 | – |
| COC(=O)N[C@H](C(=O)N1CCC[C@H]1c1nc(-c2cnc(-c3ccc(-c4cnc([C@@H]5CCCN5C(=O)[C@@H](NC(=O)OC)[C@@H](C)OC)[nH]4)c(F)c3)nc2)c[nH]1)[C@@H](C)OC [Example D70, methyl ((1S,2R)-1-(((2S)-2-(5-(2-fluoro-4-(5-(2-((2S)-1-(N-(methoxycarbonyl)-O-methyl-L-threonyl)-2-pyrrolidinyl)-1H-imidazol-5-yl)-2-pyrimidinyl)phenyl)-1H-imidazol-2-yl)-1-pyrrolidinyl)carbonyl)-2-methoxypropyl) carbamate] | 0.001 to 0.999 | – |
| COC(=O)N[C@@H](C(=O)N[C@@H](C)c1ncc(-c2ccc(-c3ccc(-c4cnc([C@H](C)NC(=O)[C@H](NC(=O)OC)c5ccccc5)[nH]4)cn3)nc2)[nH]1)c1ccccc1 [Example 153c-7, dimethyl (2,2′-bipyridine-5,5′-diylbis(1H-imidazole-5,2-diyl(1S)-1,1-ethanediylimino((1R)-2-oxo-1-phenyl-2,1-ethanediyl)))biscarbamate] | 1 to 99 | – |
| COC(=O)N[C@H](C(=O)N1CCC[C@H]1c1ncc(-c2ccc(-c3ccc(-c4cnc([C@@H]5CCCN5C(=O)CN(C(C)C)C(C)C)[nH]4)cc3)cc2)[nH]1)C(C)C [LS26, methyl ((1S)-1-(((2S)-2-(5-(4′-(2-((2S)-1-(N,N-diisopropylglycyl)-2-pyrrolidinyl)-1H-imidazol-5-yl)-4-biphenylyl)-1H-imidazol-2-yl)-1-pyrrolidinyl)carbonyl)-2-methylpropyl)carbamate] | 0.001 to 0.999 | – |
| COC(=O)N[C@@H](C(=O)N1CCC[C@H]1c1ncc(-c2ccc(-c3ccc(-c4cnc([C@@H]5CCCN5C(=O)C5(C(F)(F)F)CC5)[nH]4)cc3)cc2)[nH]1)c1ccccc1 [Example 84-32, methyl ((1R)-2-oxo-1-phenyl-2-((2S)-2-(5-(4′-(2-((2S)-1-((1-(trifluoromethyl)cyclopropyl)carbonyl)-2-pyrrolidinyl)-1H-imidazol-5-yl)-4-biphenylyl)-1H-imidazol-2-yl)-1-pyrrolidinyl)ethyl)carbamate] | 0.001 to 0.999 | – |
| COC(=O)N[C@@H](CC(=O)O)C(=O)N1CCC[C@H]1c1ncc(-c2ccc(-c3ccc(-c4cnc([C@@H]5CCCN5C(=O)[C@@H](NC(=O)OC)C(C)C)[nH]4)cc3)cc2)[nH]1 [Example M111, (3S)-3-((methoxycarbonyl)amino)-4-((2S)-2-(5-(4′-(2-((2S)-1-(N-(methoxycarbonyl)-L-valyl)-2-pyrrolidinyl)-1H-imidazol-5-yl)-4-biphenylyl)-1H-imidazol-2-yl)-1-pyrrolidinyl)-4-oxobutanoic acid] | 1000 to 10000 | – |
